Tested on: human monocyte-derived macrophages (hMDMs)
Assay: Example 2E: CSF1R inhibition by PLX5622, confluence and morphology (Incucyte)
Format: cell-based
Conditions: PLX5622 1 μM relative to vehicle alone
Procedure: PBMCs were isolated from fresh, whole blood from human donors. CD14+ monocytes were isolated using positive magnetic selection (Miltenyi). Cells were plated in UpCell® low-adhesion plates and incubated in culture media with 50 ng/mL CSF1 for 48 hours. After 48 hours, cells were non-enzymatically harvested and plated at 25,000 cells per well in cell culture plates coated with 10 μg/mL of either Ab-3 or a matching isotype control. PLX5622 was immediately added to the cultures to 1 μM, and plates were incubated in a humidified incubator at 37 C, 5% CO2 for an additional 96 hours. During incubation, cells were monitored every two hours using an Incucyte S3® analyzer (2 fields of view per well, imaged at 10×). Confluence was measured using built in S3 software, while area and eccentricity (cell shape) were measured using the built in “Cell By Cell” analysis software. Significance was determined by Student's T-test, two-tailed in Graphpad Prism.

Structure (SMILES): COc1ncc(F)cc1CNc1ccc(Cc2c[nH]c3ncc(C)cc23)c(F)n1 [PLX5622, reference compound]
- confluence (FIG. 5): significant reduction in confluence
- cells with “high area, high eccentricity” (ramified) (FIG. 6): significant reduction in cells with “high area, high eccentricity”
